Results from PMC2772868 (Biochemistry, 2009).

B1: 40-bp natural lac operator (dsDNA)
DNA 1: TGTTGTGTGGAATTGTGAGCGGATAACAATTTCACACAGG
DNA 2: CCTGTGTGAAATTGTTATCCGCTCACAATTCCACACAACA

Experiments:
[1] = biological target: LacI (lactose repressor protein) (Escherichia coli, UniProt P03023); assay type: binding
[2] = biological target: LacI wild-type (Escherichia coli, UniProt P03023 1-360); assay: filter binding
Sequence of LacI wild-type (P03023 whole entry): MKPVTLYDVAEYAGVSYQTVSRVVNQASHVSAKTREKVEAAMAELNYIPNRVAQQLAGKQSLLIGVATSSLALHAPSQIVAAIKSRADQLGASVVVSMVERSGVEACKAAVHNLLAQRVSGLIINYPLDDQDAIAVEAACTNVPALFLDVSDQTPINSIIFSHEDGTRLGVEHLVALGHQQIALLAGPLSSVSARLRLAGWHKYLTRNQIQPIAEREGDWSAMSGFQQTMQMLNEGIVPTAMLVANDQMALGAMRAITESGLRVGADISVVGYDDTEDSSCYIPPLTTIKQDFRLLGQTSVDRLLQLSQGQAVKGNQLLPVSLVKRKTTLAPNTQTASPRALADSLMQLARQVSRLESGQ

Sequence of LacI (lactose repressor protein) (P03023 whole entry): as above

Molecule | EC50 [1] | Kd [2]
CC(C)S[C@@H]1O[C@H](CO)[C@H](O)[C@H](O)[C@H]1O [IPTG, isopropyl-β-D-thiogalactoside] | 2200 nM | 
B1 |  | 0.022 ± 0.002 nM
